The values below are quoted from earlier work in patent US20200236944A1, “DIURON-CONTAINING FRUIT THINNING AGENT” (ADAMA AGAN LTD., priority 2017, published 2020).

The structures appear in SMILES notation.

For data set [1], the system named is orange trees. As to conditions: 2500 ppm diuron.
For data set [2], the system named is peach leaves. As to conditions: 100 ppm diuron.

For `CN(C)C(=O)Nc1ccc(Cl)c(Cl)c1` [diuron, 3-(3,4-dichlorophenyl)-1,1-dimethylurea], in data set [1], the “Fruiting of orange trees” value is reported as “partially prevent the fruiting”. The “Photosynthesis rate for peaches” value in data set [2] was “long-lasting and thus undesirably low”.
